This note sets out measurements from patent US20230107642A1 (Erasca, Inc., priority 2020, published 2023).

The first assay deals with T1, Cys12 of the KRAS 4B G12C protein (Homo sapiens, UniProt P01116, G12C).
T1 construct: This protein contained 188 amino acids in total, including an N-terminal 6-Histidine tag; made in house; host or cells: E. coli BL21
As to the kind of experiment: In vitro covalent adduct formation (CAF) assay, LC-MS intact mass. Type of assay: binding. Conditions: 10 uM compound, 60 min. In short, it runs like this: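 Percent covalent modification from intact-mass LC-MS, by relative free versus adducted protein (adducts within 1 Da of expected mass). Reaction: 10 μM compound with 5 μM E. coli-expressed, GDP-exchanged KRAS 4B G12C in TBS pH 7.4, 4% DMSO, 1 h at 22° C.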
As for `[2H]C([2H])([2H])OC[C@H]1CSc2c(-c3ccc(F)cc3F)c(C(F)(F)F)cc3c(N4C[C@@H](C)N(C(=O)C=C)[C@@H](C)C4)nc(=O)n1c23` (atropisomer, axis not shown) [Example 1423, (3S,10R)-7-((3S,5R)-4-acryloyl-3,5-dimethylpiperazin-1-yl)-10-(2,4-difluorophenyl)-3-((methoxy-d3)methyl)-9-(trifluoromethyl)-2,3-dihydro-5H-[1,4]thiazino[2,3,4-ij]quinazolin-5-one], the “% CAF 10 uM @ 60 min” value came out at 95.1%.

In the case of `C=CC(=O)N1C[C@H](C)N(c2nc(=O)n3c4c(c(-c5ccc(F)cc5F)c(C(F)(F)F)cc24)SC[C@@H]3CN2CCC3(CC2)COC3)C[C@H]1C` (atropisomer, axis not shown) [Example 1315, (3S,10R)-3-((2-oxa-7-azaspiro[3.5]nonan-7-yl)methyl)-7-((2S,5R)-4-acryloyl-2,5-dimethylpiperazin-1-yl)-10-(2,4-difluorophenyl)-9-(trifluoromethyl)-2,3-dihydro-5H-[1,4]thiazino[2,3,4-ij]quinazolin-5-one], the “% CAF 10 uM @ 60 min” value worked out at 96.3%. For `C=CC(=O)N1C[C@H](C)N(c2nc(=O)n3c4c(c(-c5cc(Cl)c(F)cc5F)c(C(F)(F)F)cc24)SC[C@@H]3CN2CCC3(CC2)COC3)C[C@H]1C` (atropisomer, axis not shown) [Example 1313, (3S,10R)-3-((2-oxa-7-azaspiro[3.5]nonan-7-yl)methyl)-7-((2S,5R)-4-acryloyl-2,5-dimethylpiperazin-1-yl)-10-(5-chloro-2,4-difluorophenyl)-9-(trifluoromethyl)-2,3-dihydro-5H-[1,4]thiazino[2,3,4-ij]quinazolin-5-one], the “% CAF 10 uM @ 60 min” value worked out at 96.4%. For the molecule `C=CC(=O)N1C[C@H](C)N(c2nc(=O)n3c4c(c(-c5ccc(F)c(Cl)c5)c(C(F)(F)F)cc24)SCC2(COC2)C3)C[C@H]1C` [Example 1354, 8′-((2S,5R)-4-acryloyl-2,5-dimethylpiperazin-1-yl)-11′-(3-chloro-4-fluorophenyl)-10′-(trifluoromethyl)-2′H,4′H,6′H-spiro[oxetane-3,3′-[1,4]thiazepino[2,3,4-ij]quinazolin]-6′-one], the “% CAF 10 uM @ 60 min” value came out at 96%. The same measure, in the same setting: the result for `C=CC(=O)N1[C@H](C)CN(c2nc(=O)n3c4c(c(-c5ccc(F)c(Cl)c5)c(C(F)(F)F)cc24)SCC2(COC2)C3)C[C@@H]1C` [Example 1353, 8′-((3S,5R)-4-acryloyl-3,5-dimethylpiperazin-1-yl)-11′-(3-chloro-4-fluorophenyl)-10′-(trifluoromethyl)-2′H,4′H,6′H-spiro[oxetane-3,3′-[1,4]thiazepino[2,3,4-ij]quinazolin]-6′-one] reads 96.4%; that for `C=CC(=O)N1[C@H](C)CN(c2nc(=O)n3c4c(c(-c5cc(Br)c(F)cc5F)c(C(F)(F)F)cc24)SC[C@@H]3COC)C[C@@H]1C` (atropisomer, axis not shown) [Example 1447, (3S,10R)-7-((3S,5R)-4-Acryloyl-3,5-dimethylpiperazin-1-yl)-10-(5-bromo-2,4-difluorophenyl)-3-(methoxymethyl)-9-(trifluoromethyl)-2,3-dihydro-5H-[1,4]thiazino[2,3,4-ij]quinazolin-5-one], 97%; that for `C=CC(=O)N1C[C@H](C)N(c2nc(=O)n3c4c(c(-c5ccc(F)cc5F)c(C(F)(F)F)cc24)SC[C@@H]3CN2CCC3(CC2)COC3)C[C@H]1C` (atropisomer, axis not shown) [Example 1314, (3S,10S)-3-((2-oxa-7-azaspiro[3.5]nonan-7-yl)methyl)-7-((2S,5R)-4-acryloyl-2,5-dimethylpiperazin-1-yl)-10-(2,4-difluorophenyl)-9-(trifluoromethyl)-2,3-dihydro-5H-[1,4]thiazino[2,3,4-ij]quinazolin-5-one], 95.8%. Still for that read-out and setting: the result for `C=CC(=O)N1[C@H](C)CN(c2nc(=O)n3c4c(c(-c5cc(Cl)c(F)cc5F)c(C(F)(F)F)cc24)SC[C@@H]3COCOC)C[C@@H]1C` (atropisomer, axis not shown) [Example 1369] reads 64.6%; that for `C=CC(=O)N1[C@H](C)CN(c2nc(=O)n3c4c(c(-c5c(F)cccc5F)c(C(F)(F)F)cc24)SC[C@@H]3COC)C[C@@H]1C` [Example 1371, (S)-7-((3S,5R)-4-acryloyl-3,5-dimethylpiperazin-1-yl)-10-(2,6-difluorophenyl)-3-(methoxymethyl)-9-(trifluoromethyl)-2,3-dihydro-5H-[1,4]thiazino[2,3,4-ij]quinazolin-5-one], 60.6%; that for `[2H]C([2H])=C([2H])C(=O)N1[C@H](C)CN(c2nc(=O)n3c4c(c(-c5ccc(F)cc5F)c(C(F)(F)F)cc24)SC[C@@H]3COC)C[C@@H]1C` (atropisomer, axis not shown) [Example 1404, (3S,10S)-7-((3S,5R)-4-(acryloyl-d3)-3,5-dimethylpiperazin-1-yl)-10-(2,4-difluorophenyl)-3-(methoxymethyl)-9-(trifluoromethyl)-2,3-dihydro-5H-[1,4]thiazino[2,3,4-ij]quinazolin-5-one], 80.9%. `C=CC(=O)N1CCN(c2nc(=O)n3c4c(c(-c5ccc(F)cc5F)c(C(F)(F)F)cc24)SC[C@@H]3CN2C[C@@H]3C[C@H]2CO3)CC1` (atropisomer, axis not shown) [Example 1305, (3S,10R)-3-(((1S,4S)-2-oxa-5-azabicyclo[2.2.1]heptan-5-yl)methyl)-7-(4-acryloylpiperazin-1-yl)-10-(2,4-difluorophenyl)-9-(trifluoromethyl)-2,3-dihydro-5H-[1,4]thiazino[2,3,4-ij]quinazolin-5-one]: the “% CAF 10 uM @ 60 min” value worked out at 97.2%.

Still in this assay, the particulars now being: 10 uM compound, 60 min incubation.
Take `C=CC(=O)N1CCN(c2nc(=O)n3c4c(c(-c5ccc(F)cc5F)c(C(F)(F)F)cc24)SCC2(COC2)C3)CC1` [Example 1123, 8′-(4-acryloylpiperazin-1-yl)-11′-(2,4-difluorophenyl)-10′-(trifluoromethyl)-2′H,4′H,6′H-spiro[oxetane-3,3′-[1,4]thiazepino [2,3,4-ij]quinazolin]-6′-one]: the “% CAF 10 uM @ 60 min” value is on record as 95.2%.

Still in this assay, the particulars now being: 10 μM compound, after 1 hour.
Regarding `C=CC(=O)N1CCN(c2nc(=O)n3c4c(c(-c5cc(Cl)c(F)cc5F)c(C(F)(F)F)cc24)SC[C@@H](OC)C3)[C@@H]2CSC[C@@H]21` [Example 1214, (3S)-8-((4aR,7aS)-4-acryloylhexahydrothieno[3,4-b]pyrazin-1(2H)-yl)-11-(5-chloro-2,4-difluorophenyl)-3-methoxy-10-(trifluoromethyl)-3,4-dihydro-2H,6H-[1,4]thiazepino[2,3,4-ij]quinazolin-6-one], the “CAF (% after 1 hour)” value is given as 49%. On the same count and under the same terms, the result for `C=CC(=O)N1[C@H](C)CN(c2nc(=O)n3c4c(c(-c5ccc(F)cc5C(N)=O)c(C(F)(F)F)cc24)SC[C@@H](OC)C3)C[C@@H]1C` [Example 1235, 2-((3S)-8-((3S,5R)-4-acryloyl-3,5-dimethylpiperazin-1-yl)-3-methoxy-6-oxo-10-(trifluoromethyl)-3,4-dihydro-2H,6H-[1,4]thiazepino[2,3,4-ij]quinazolin-11-yl)-5-fluorobenzamide] reads 69%; that for `C=CC(=O)N1[C@H](C)CN(c2nc(=O)n3c4c(c(-c5cc(Cl)c(F)cc5F)c(C(F)(F)F)cc24)SC[C@@H](NCC(F)(F)F)C3)C[C@@H]1C` [Example 1240, (3S)-8-((3S,5R)-4-acryloyl-3,5-dimethylpiperazin-1-yl)-11-(5-chloro-2,4-difluorophenyl)-3-((2,2,2-trifluoroethyl)amino)-10-(trifluoromethyl)-3,4-dihydro-2H,6H-[1,4]thiazepino[2,3,4-ij]quinazolin-6-one], 91%.

Still in this assay, the particulars now being: after 60 min.
Take `C=CC(=O)N1CCN(c2nc(=O)n3c4c(c(-c5ccc(F)c(Cl)c5)c(C(F)(F)F)cc24)SC[C@H](OC)C3)CC1` [Example 1043, (R)-8-(4-acryloylpiperazin-1-yl)-11-(3-chloro-4-fluorophenyl)-3-methoxy-10-(trifluoromethyl)-3,4-dihydro-2H,6H-[1,4]thiazepino[2,3,4-ij]quinazolin-6-one]: the “CAF (% binding after 60 min)” value is reported as 97%. Regarding `C=CC(=O)N1CCN(c2nc(=O)n3c4c(c(-c5ccc(F)cc5F)c(C(F)(F)F)cc24)SC[C@H](OCCOC)C3)CC1` [Example 1018, (3R)-8-(4-acryloylpiperazin-1-yl)-11-(2,4-difluorophenyl)-3-(2-methoxyethoxy)-10-(trifluoromethyl)-3,4-dihydro-2H,6H-[1,4]thiazepino[2,3,4-ij]quinazolin-6-one], the “CAF (% binding after 60 min)” value is on record as 96%. Same read-out and setting: the result for `C=CC(=O)N1[C@H](C)CN(c2nc(=O)n3c4c(c(-c5ccc(F)cc5)c(C(F)(F)F)cc24)SC[C@@H](O)C3)C[C@@H]1C` [Example 1003, (S)-8-((3S,5R)-4-acryloyl-3,5-dimethylpiperazin-1-yl)-11-(4-fluorophenyl)-3-hydroxy-10-(trifluoromethyl)-3,4-dihydro-2H,6H-[1,4]thiazepino[2,3,4-ij]quinazolin-6-one] reads 95%; that for `C=CC(=O)N1[C@H](C)CN(c2nc(=O)n3c4c(c(-c5ccc(F)c(Cl)c5)c(C(F)(F)F)cc24)SC[C@@H](OCCN(C)C)C3)C[C@@H]1C` [Example 1035, (S)-8-((3S,5R)-4-acryloyl-3,5-dimethylpiperazin-1-yl)-11-(3-chloro-4-fluorophenyl)-3-(2-(dimethylamino)ethoxy)-10-(trifluoromethyl)-3,4-dihydro-2H,6H-[1,4]thiazepino[2,3,4-ij]quinazolin-6-one], 97%.
